Measurements reported in patent publication US20180078576A1, “SULPHATED XYLANS FOR TREATMENT OR PROPHYLAXIS OF RESPIRATORY DISEASES” (Paradigm Biopharmaceuticals Limited, priority 2007, published 2018).

Tests used:
IL-5 = target: T1, IL-5 (Homo sapiens, UniProt P05113); experiment: IL-5 dependent Ba/F-IL-5 cell proliferation (luciferase); format: cell-based; conditions: dose-response, FIG. 4
T1 construct: made in house; host or cells: baculovirus expression system (from the general materials paragraph)
T1 sequence (P05113 20-134): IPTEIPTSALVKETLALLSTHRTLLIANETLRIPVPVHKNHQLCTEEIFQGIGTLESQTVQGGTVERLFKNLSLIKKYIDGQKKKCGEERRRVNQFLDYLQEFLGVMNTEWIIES
Description: PPS inhibited the proliferation of an IL-5 responsive cell line. This occurs at very low doses and is not due to a toxic effect of the PPS as other similarly sulfated polysaccharides have no affect in this assay. These experiments are performed with the IL-5 responsive cells, Ba/F-IL-5. The Ba/F-IL-5 cells were derived from the Ba/F3 cell line.
The Ba/F3 cell line was transformed to be both IL-5 dependent and to express luciferase by co-transfection of the cells with pGL3 control vector (Promega, USA) and pEE6 hcmv-IL-5Rα. The control vector, pGL3 expresses a modified luciferase under the direct control of the SV40 promoter and enhancer, but contains no selectable marker. To prepare pEE6 hcmv-hIL-5Rα a full length human IL-5 receptor α chain (hIL-5R-α) was cloned by RT PCR from HL60 cells. The preparation of the Ba/F-IL-5 cells has been described by Coombe et al, Journal of Immunological Methods 215: 145-150, 1998. […]
After transfection, positive transfectants are selected in 3 μg/ml puromycin. […] The cells are counted with a Coulter Z2 Particle Counter and Size Analyzer (Coulter Electronics, England) and routinely 1.6×10^4 cells are added to microplate wells that contain either no IL-5 (negative control) or various dilutions of IL-5. When the effect of PPS, or other sulfated polysaccharides is to be measured, the wells also contain various concentrations of these molecules. […]

[1] = test system: guinea pigs sensitized with ovalbumin (OVA) and challenged intranasally with OVA; experiment: Allergic rhinitis model in the guinea pig (OVA); format: in vivo
Description: An allergic rhinitis model in the guinea pig was used. The guinea pigs are sensitized to ovalbumin (OVA) twice (on days 0 and 7) by an intraperitoneal injection of 0.5 ml saline containing 100 mg Al(OH)3 and 2 μg OVA. Three weeks after the last sensitization, animals are anaesthetized and the exposure of the nasal cavity to allergen is performed by dropping OVA solution at 20 mg/ml into bilateral nasal cavities. For the negative control the animals receive sensitization and challenge with saline. The animals are pretreated with either vehicle or drug (pentosan polysulfate or Budesonide) 30 min prior to intranasal instillation of OVA. Vehicle or drugs are administered, 25 μl-50 μl/nostril. A comparison of the pentosan polysulfate with Budesomde, as the reference compound, is included. Animals are terminated and all parameters measured eight hours after the provocation.
The nasal mucosal barrier permeability is assessed by measuring the leakage of protein-rich and non-sieved plasma into the nasal cavities. The amount of extravasated plasma is indicated as nasal lavage levels of total protein or albumin. Nasal lavage fluid is collected by gently rinsing the nasal cavities with phosphate buffered saline. The cells in this fluid are centrifuged and resuspended in phosphate buffered saline and counted using a semiautomated haematology analyzer. The cell composition of the nasal lavage is determined after a cytospin and staining with May Grynwald Giemsa.

human GM-CSF = human GM-CSF (Homo sapiens, UniProt P04141); experiment: GM-CSF dependent TF-1.8 cell proliferation; format: cell-based; conditions: 10 μg/ml and 1 μg/ml, GM-CSF 0.025 ng/ml, FIG. 7
human GM-CSF, sequence (P04141 18-144): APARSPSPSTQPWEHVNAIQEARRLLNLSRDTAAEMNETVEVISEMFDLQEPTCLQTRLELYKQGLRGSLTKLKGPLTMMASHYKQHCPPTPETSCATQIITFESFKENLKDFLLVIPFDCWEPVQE
Description: TF-1.8 cells were derived from TF-1 cells that respond to human GM-CSF (granulocyte-macrophage colony stimulating factor). TF-1.8 cells retained their responsiveness to GM-CSF. Routinely 2.5×10^4 cells are added to microplate wells that contain either no GM-CSF (negative control) or various dilutions of GM-CSF. The cells are cultured for 48 hours at 37° C. in a humidified atmosphere, after which the luciferase activity is measured by the addition of 50 μl of luciferase substrate buffer (50 mM Tris-HCl, pH 7.8, 15 mM MgSO4, 33.3 mM DTT, 0.1 mM EDTA, 0.5 mM Na-luciferin, 0.5 mM ATP, 0.25 mM lithium Co A and 0.5% v/v Triton X-100). Immediately after the addition of the luciferase buffer the plate is assayed for luciferase activity. Light emissions are detected on a Victor 1420 Multi-label counter (Wallac, Turku, Finland). A titration of GM-CSF established that these cells are dependent upon this growth factor (FIG. 6). When the effect of PPS, or other sulfated polysaccharides is to be measured, the wells also contain various concentrations of these molecules as well as the GM-CSF.

In the case of Pentosan polysulfate [PPS], the “Inhibition of IL-5 dependent Ba/F-IL-5 cell proliferation (in words)” value (IL-5) is reported as “effective inhibitor”, the “Leukocyte infiltration into nasal lavage fluid (total white cell numbers)” value ([1]; 8 hours after intranasal OVA challenge, FIG. 12) is reported as “inhibited leukocyte infiltration at all the concentrations tested” and the “Protein content of nasal lavage fluid (plasma exudation)” value ([1]; 8 hours after intranasal OVA challenge, drug intranasal 30 min before, FIG. 11) is reported as “significantly reduced”. For the same substance, the “Cellular infiltrate in nasal lavage fluid” value ([1]; drugs at 5 mg/kg, FIG. 13) was “markedly reduced” and the “Effect on TF-1.8 cell proliferation obtained with GM-CSF” value (human GM-CSF) was “no effect”.
